Test system: 616215-338-R-J1-PDC complex spheroid viability
Assay: Anticancer human tumor 616215-338-R-J1-PDC patient-derived colon adenocarcinoma cell line growth inhibition [RAS]
Settings: for IC50: curve of first compound; for viability, T/C: stronger effect = lower value
Method in brief: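 Agents were tested in combination matrices in half-log decrements from a top concentration at or near clinical Cmax (10 microM if undetermined). Targets were multi-cell spheroids of tumour lines plus HUVEC and MSC stromal cells.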
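Also: spheroids exposed to agents for seven days before viability readout.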
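For viability, T/C in this document: 100% = DMSO vehicle control viability.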

IC50 (second compound 0.000949 µM): > 1000 nM
IC50 (second compound 0.003 µM): 522 nM
IC50 (second compound 0.00949 µM): 216 nM
IC50 (second compound 0.03 µM): 3.16 nM
IC50 (second compound 0.0949 µM): < 3.16 nM
IC50 (second compound 0.3 µM): < 3.16 nM
SMILES: C=CC(=O)Nc1cc(Nc2nccc(-c3cn(C)c4ccccc34)n2)c(OC)cc1N(C)CCN(C)C + CCn1c(-c2cc(N3CCN(C)CC3)cnc2C(C)OC)c2c3cc(ccc31)-c1csc(n1)CC(NC(=O)C1CC1C)C(=O)N1CCCC(N1)C(=O)OCC(C)(C)C2
viability, T/C (second compound 0.000949 µM, first compound 0.00316 µM): 106%
viability, T/C (second compound 0.000949 µM, first compound 0.01 µM): 102%
viability, T/C (second compound 0.000949 µM, first compound 0.0316 µM): 119%
viability, T/C (second compound 0.000949 µM, first compound 0.1 µM): 101%
viability, T/C (second compound 0.000949 µM, first compound 0.316 µM): 84.1%
viability, T/C (second compound 0.000949 µM, first compound 1 µM): 56.3%
viability, T/C (second compound 0.003 µM, first compound 0.00316 µM): 113%
viability, T/C (second compound 0.003 µM, first compound 0.01 µM): 109%
viability, T/C (second compound 0.003 µM, first compound 0.0316 µM): 104%
viability, T/C (second compound 0.003 µM, first compound 0.1 µM): 81.9%
viability, T/C (second compound 0.003 µM, first compound 0.316 µM): 54.7%
viability, T/C (second compound 0.003 µM, first compound 1 µM): 43.7%
viability, T/C (second compound 0.00949 µM, first compound 0.00316 µM): 77.3%
viability, T/C (second compound 0.00949 µM, first compound 0.01 µM): 80.4%
viability, T/C (second compound 0.00949 µM, first compound 0.0316 µM): 72%
viability, T/C (second compound 0.00949 µM, first compound 0.1 µM): 63%
viability, T/C (second compound 0.00949 µM, first compound 0.316 µM): 43.6%
viability, T/C (second compound 0.00949 µM, first compound 1 µM): 28.7%
viability, T/C (second compound 0.03 µM, first compound 0.00316 µM): 44.4%
viability, T/C (second compound 0.03 µM, first compound 0.01 µM): 48.8%
viability, T/C (second compound 0.03 µM, first compound 0.0316 µM): 48.4%
viability, T/C (second compound 0.03 µM, first compound 0.1 µM): 54.9%
viability, T/C (second compound 0.03 µM, first compound 0.316 µM): 34.5%
viability, T/C (second compound 0.03 µM, first compound 1 µM): 32.4%
viability, T/C (second compound 0.0949 µM, first compound 0.00316 µM): 30.8%
viability, T/C (second compound 0.0949 µM, first compound 0.01 µM): 34.1%
viability, T/C (second compound 0.0949 µM, first compound 0.0316 µM): 36.6%
viability, T/C (second compound 0.0949 µM, first compound 0.1 µM): 36.9%
viability, T/C (second compound 0.0949 µM, first compound 0.316 µM): 34.7%
viability, T/C (second compound 0.0949 µM, first compound 1 µM): 33%
viability, T/C (second compound 0.3 µM, first compound 0.00316 µM): 39.2%
viability, T/C (second compound 0.3 µM, first compound 0.01 µM): 33.1%
viability, T/C (second compound 0.3 µM, first compound 0.0316 µM): 39.1%
viability, T/C (second compound 0.3 µM, first compound 0.1 µM): 37.3%
viability, T/C (second compound 0.3 µM, first compound 0.316 µM): 33.5%
viability, T/C (second compound 0.3 µM, first compound 1 µM): 32.5%

Source: PubChem BioAssay AID2060898 (Molecular Pharmacology Branch, DTP, NCI, 2025)
